This is an account of results in patent US11549017B2, “NIR to SWIR fluorescent compounds for imaging and detection” (PERKINELMER HEALTH SCIENCES, INC., priority 2017, dated 2023).

What all share (type): physicochemical
The nature of data set [1]: Absorbance spectra / absorbance maximum in solvents (UV/vis spectrophotometer). The text has this:
Normalized spectra thus obtained are shown in FIG. 1 for each fluorochrome compound. […]

A short description of data set [2]: Fluorescence emission spectra with excitation at 980 nm (InGaAs NIR detector). As to conditions: for fluorescence emission in water: aqueous solution. The method, then:
The emission of D2 was measured in acetonitrile (ACN), ethanol (EtOH), methanol (MeOH). Spectra were recorded on a Quantamaster 8075-21 fluorescence spectrophotometer equipped with a liquid nitrogen cooled cooled DSS-IGA020L/CUS InGaAs NIR detector with excitation at 980 nm and emission recorded from 1000 nm to 1200 nm. The emission spectra as illustrated in FIG. 2 are at equal absorbance at 980 nm for each solvent.
The fluorescence spectra for an equal absorbance ˜0.13 solution of dyes A, B, C in dichloroethane were determined by exciting at 980 nm (Horiba (Quantamaster 8075-21), nitrogen cooled InGaAs detector) and compared them with a commercially available dye, IR-26 (obtained from Exciton) D as reference. Dye B is more than 2 fold brighter than the reference IR-26 in DCE as illustrated in FIG. 3.
The fluorescence of dyes A, B and C were also determined in other solvents viz., methanol, ethanol, DMSO and water. […]

A short description of data set [3]: Absorbance spectra / absorbance maximum in solvents (UV/vis spectrophotometer). The source holds these as a separate data set.
[4] abbreviates: DCE, excitation 980 nm, equal absorbance ~0.13.

Values joined by “and” are separate entries in the source; they are usually repeats but may differ in a detail not shown here. Equal values may be shown once.

In the case of `O=S(=O)(O)CCCn1/c(=C\C=C2/CCCC(/C=C/C3=[N+](CCCS(=O)(=O)O)c4ccc(S(=O)(=O)[O-])c5cccc3c45)=C2Cl)c2cccc3c(S(=O)(=O)O)ccc1c32` [D85], the “Abs λmax (absorbance max, UV-Vis λmax)” value in data set [1] (methanol) is listed as about 1030 nm.

In the case of `CCn1/c(=C/C=C2C(Cl)=C(/C=C/C3=[N+](CC)c4cccc5c(S(=O)(=O)[O-])ccc3c45)C3CCC/2C3)c2ccc(S(=O)(=O)O)c3cccc1c32` (centres unmarked) [B], the “% Fluorescence Relative to C” value in data set [2] (DCE) came out at 130.82%; in data set [2] (DMSO), 80.53%; in data set [2] (EtOH), 76.31%; in data set [2] (MeOH), 94.80%. Further, the “Fluorescence Max” value in data set [2] (setting [4]) was 1080 nm; in data set [2] (DMSO, excitation 980 nm), 1092 nm; in data set [2] (EtOH, excitation 980 nm), 1062 nm; in data set [2] (MeOH, excitation 980 nm), 1056 nm. In addition, the “fluorescence emission in water” value in data set [2] is “highly quenched”. Moreover, the “brightness relative to the reference IR-26” value in data set [2] (in DCE, excitation 980 nm, equal absorbance) is listed as “more than 2 fold”.

Take `O=C(O)CCCn1\c(=C/C=C/C=C/C=C/C2=[N+](CCCS(=O)(=O)O)c3ccc(S(=O)(=O)[O-])c4cccc2c34)c2cccc3c(S(=O)(=O)O)ccc1c32` [D13]: in data set [1] (methanol), the “Abs λmax (absorbance max, UV-Vis λmax)” value is about 980 nm.

For the compound `CCn1/c(=C/C=C2\CCCC(/C=C/C3=[N+](CC)c4cccc5c(S(=O)(=O)[O-])ccc3c45)=C2Cl)c2ccc(S(=O)(=O)O)c3cccc1c32` [A], the “% Fluorescence Relative to C” value in data set [2] (DCE) was 90.11%; in data set [2] (DMSO), 29.46%; in data set [2] (EtOH) it was 92.92%; in data set [2] (MeOH) it was 86.00%. Besides, the “Fluorescence Max” value in data set [2] (setting [4]) is reported as 1064 nm; in data set [2] (DMSO, excitation 980 nm), 1080 nm; in data set [2] (EtOH, excitation 980 nm), 1050 nm; in data set [2] (MeOH, excitation 980 nm), 1046 nm. Also, the “fluorescence emission in water” value in data set [2] is on record as “highly quenched”.

With `C[N+]1=C(/C=C/C=C/C=C/C=c2/c3cccc4c(S(=O)(=O)O)ccc(c43)n2CCCC(=O)O)c2cccc3c(S(=O)(=O)[O-])ccc1c23` [D20], in data set [1] (methanol), the “Abs λmax (absorbance max, UV-Vis λmax)” value is on record as about 980 nm.

`CCn1\c(=C/C=C(/C=C/C2=[N+](CC)c3ccc(S(=O)(=O)O)c4cccc2c34)c2ccc(C(=O)O)cn2)c2cccc3c(S(=O)(=O)O)ccc1c32` [D71]: in data set [1] (methanol), the “Abs λmax (absorbance max, UV-Vis λmax)” value came out at 851 nm.

For the compound `O=S(=O)([O-])CCC[N+]1=C(/C=C/C2=C(Cl)C(=C/C=c3/c4cccc5c(S(=O)(=O)O)ccc(c54)n3CCCS(=O)(=O)O)/C3CCC2C3)c2cccc3c(S(=O)(=O)O)ccc1c23` (centres unmarked) [D15], the “Abs λmax (absorbance max, UV-Vis λmax)” value in data set [1] (methanol) is about 1030 nm.

Regarding `ClC1=C(/C=C/c2cc(-c3ccccc3)[s+]c3ccccc23)CCC/C1=C\C=C1/C=C(c2ccccc2)Sc2ccccc21.[O-][Cl+3]([O-])([O-])[O-]` [D (IR-26), IR-26, reference compound], the “% Fluorescence Relative to C” value in data set [2] (DCE) worked out at 58.89%. Further, the “Fluorescence Max” value in data set [2] (setting [4]) turned out to be 1118 nm.

On to `CCn1/c(=C\C=C2/CCCC(/C=C/C3=[N+](CC)c4ccc(S(=O)(=O)O)c5cccc3c45)=C2Cl)c2cccc3c(S(=O)(=O)O)ccc1c32` [compound 26], for which the Absorption max was 1022 nm in data set [1] (in Methanol); 829 nm in data set [1] (in Water); 1019 nm in data set [3] (in Acetonitrile); 820 nm in data set [3] (in Chloroform); 1069 nm and 1065 nm in data set [3] (in DMSO); 810 nm in data set [3] (in Dichloromethane). Besides, the Absorption max in data set [3] (in Ethanol) is on record as 1032 nm.

For the compound `O=C(O)CCCn1/c(=C/C=C/C=C/C=C/C2=[N+](CCCC(=O)O)c3ccc(S(=O)(=O)[O-])c4cccc2c34)c2cccc3c(S(=O)(=O)O)ccc1c32` [D74], in data set [1] (methanol), the “Abs λmax (absorbance max, UV-Vis λmax)” value was 980 nm.

Take `O=S(=O)([O-])CCCC[N+]1=C(/C=C/C2=C(Cl)C(=C/C=c3\c4cccc5cccc(c54)n3CCCCS(=O)(=O)O)/CCC2)c2cccc3cccc1c23` [C]: the “% Fluorescence Relative to C” value in data set [2] (DCE), in data set [2] (DMSO), in data set [2] (EtOH) and in data set [2] (MeOH) was 1.00% in each case. Besides, the “Fluorescence Max” value in data set [2] (setting [4]) is listed as 1062 nm; in data set [2] (DMSO, excitation 980 nm), 1074 nm; in data set [2] (EtOH, excitation 980 nm), 1046 nm; in data set [2] (MeOH, excitation 980 nm), 1042 nm. Besides, the “fluorescence emission in water” value in data set [2] is recorded as “highly quenched”.

As to `O=C(O)C[N+]1=C(/C=C/C=C/C=C/C=c2/c3cccc4c(S(=O)(=O)O)ccc(c43)n2CCCS(=O)(=O)O)c2cccc3c(S(=O)(=O)[O-])ccc1c23` [D18], the “Abs λmax (absorbance max, UV-Vis λmax)” value in data set [1] (methanol) was 970 nm and ~990 nm.

Take `CCOC(=O)C1(C(=O)OCC)CC(/C=C/C2=[N+](CCCS(=O)(=O)O)c3ccc(S(=O)(=O)[O-])c4cccc2c34)=CC(=C/C=c2\c3cccc4c(S(=O)(=O)O)ccc(c43)n2CCCS(=O)(=O)O)/C1` [D75]: in data set [1] (methanol), the “Abs λmax (absorbance max, UV-Vis λmax)” value worked out at 990 nm.

On to `O=C(O)CCCn1\c(=C/C=C/C=C/C=C/C2=[N+](CCCC(=O)O)c3ccc(S(=O)(=O)[O-])c4cccc2c34)c2cccc3c(S(=O)(=O)O)ccc1c32` [D17], for which the “Abs λmax (absorbance max, UV-Vis λmax)” value in data set [1] (methanol) was about 990 nm.

As for `Cn1/c(=C\C=C2C(Cl)=C(/C=C/C3=[N+](C)c4ccc(S(=O)(=O)[O-])c5cccc3c45)C3CCC\2C3)c2cccc3c(S(=O)(=O)O)ccc1c32` (centres unmarked) [D81], the “Abs λmax (absorbance max, UV-Vis λmax)” value in data set [1] (methanol) is reported as about 1026 nm.

Regarding `O=S(=O)([O-])CCC[N+]1=C(/C=C/C2=C(Cl)C(=C/C=c3/c4cccc5cccc(c54)n3CCCS(=O)(=O)O)/CCC2)c2cccc3cccc1c23` [D84], the “Abs λmax (absorbance max, UV-Vis λmax)” value in data set [1] (methanol) is recorded as about 1020 nm.

For `Cn1/c(=C\C=C2/CCCC(/C=C/C3=[N+](C)c4ccc(S(=O)(=O)[O-])c5cccc3c45)=C2Cl)c2cccc3c(S(=O)(=O)O)ccc1c32` [D82], the “Abs λmax (absorbance max, UV-Vis λmax)” value in data set [1] (methanol) is about 1020 nm.

For `CC1(C)C(/C=C/C=C/C=C/C=c2/c3cccc4c(S(=O)(=O)O)ccc(c43)n2CCCC(=O)O)=[N+](CCCS(=O)(=O)[O-])c2ccc3c(S(=O)(=O)O)cc(S(=O)(=O)O)cc3c21` [D86], the “Abs λmax (absorbance max, UV-Vis λmax)” value in data set [1] (methanol) is recorded as about 890 nm.

For `O=S(=O)([O-])CCC[N+]1=C(/C=C/C2=C(Cl)C(=C/C=c3/c4cccc5cccc(c54)n3CCCS(=O)(=O)O)/C3CCC2C3)c2cccc3cccc1c23` (centres unmarked) [D72], the “Abs λmax (absorbance max, UV-Vis λmax)” value in data set [1] (methanol) is about 1030 nm. Further, the “Abs λmax” value in data set [1] (methanol, unit not given) came to 1026.

In the case of `O=C(O)Cn1\c(=C/C=C/C=C/C=C/C2=[N+](CC(=O)O)c3ccc(S(=O)(=O)[O-])c4cccc2c34)c2cccc3c(S(=O)(=O)O)ccc1c32` [D19], the “Abs λmax (absorbance max, UV-Vis λmax)” value in data set [1] (methanol) was 980 nm and ~1010 nm.
